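GI50: concentration for 50% inhibition of growth. TGI: concentration producing complete growth inhibition.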
Experiments:
Test in all cases: inhibition of tumour cell growth, NCI panel, 384-well format
[1] = tested on: NCI/ADR-RES ovarian
[2] = tested on: ACHN renal
[3] = tested on: HL-60(TB) leukemia
[4] = tested on: DU-145 prostate
[5] = tested on: UACC-257 melanoma
[6] = tested on: PC-3 prostate
[7] = tested on: OVCAR-8 ovarian
[8] = tested on: MDA-MB-231 breast
[9] = tested on: SK-MEL-2 melanoma
[10] = tested on: NCI-H460 NSCLC
[11] = tested on: CAKI-1 renal
[12] = tested on: NCI-H23 lung
[13] = tested on: MCF7 breast
[14] = tested on: UO-31 renal
[15] = tested on: SR leukemia
[16] = tested on: SK-MEL-5 melanoma
[17] = tested on: HCC-2998 colon
[18] = tested on: TK-10 renal
[19] = tested on: SNB-19 CNS
[20] = tested on: HCT-15 colon
[21] = tested on: EKVX NSCLC
[22] = tested on: SN12C renal
[23] = tested on: 786-0 renal
[24] = tested on: HS 578T breast
[25] = tested on: NCI-H322M lung
[26] = tested on: IGROV1 ovarian
[27] = tested on: SNB-75 CNS
[28] = tested on: COLO 205 colon
[29] = tested on: NCI-H226 lung
[30] = tested on: HT29 colon
[31] = tested on: CCRF-CEM leukemia
[32] = tested on: MALME-3M melanoma
[33] = tested on: RXF 393 renal
[34] = tested on: SK-MEL-28 melanoma
[35] = tested on: RPMI-8226 leukemia
[36] = tested on: UACC-62 melanoma
[37] = tested on: OVCAR-3 ovarian
[38] = tested on: SW-620 colon
[39] = tested on: A498 renal
[40] = tested on: HOP-92 NSCLC
[41] = tested on: OVCAR-4 ovarian
[42] = tested on: SF-295 CNS
[43] = tested on: LOX IMVI melanoma
[44] = tested on: SF-539 CNS
[45] = tested on: KM12 colon
[46] = tested on: K-562 leukemia
[47] = tested on: BT-549 breast
[48] = tested on: HCT-116 colon
[49] = tested on: MOLT-4 leukemia
[50] = tested on: OVCAR-5 ovarian
[51] = tested on: NCI-H522 lung
[52] = tested on: T-47D breast
[53] = tested on: U251 glioblastoma
[54] = tested on: MDA-MB-468 breast
[55] = tested on: SF-268 CNS
[56] = tested on: SK-OV-3 ovarian
[57] = tested on: M14 melanoma
[58] = tested on: A549 NSCLC
[59] = tested on: HOP-62 NSCLC
[60] = tested on: MDA-MB-435 melanoma

Molecule `Cc1cc2cc(Oc3ccnc(Nc4cccc(CS(=O)(=O)NCCN(C)C)c4)n3)ccc2[nH]1` has a GI50 [1] of 15.3 µM, a TGI [1] of 28.8 µM and a GI50 [2] of 6.45 µM. It also gave a TGI [2] of 19 µM, a GI50 [3] of 2.45 µM and a TGI [3] of 5.63 µM. The GI50 [4] was 8.4 µM, the TGI [4] was 20.8 µM and the GI50 [5] was 1.84 µM. It also gave a TGI [5] of 3.26 µM, a GI50 [6] of 4.19 µM and a TGI [6] of 14.9 µM. For the same molecule, the GI50 [7] was 9.99 µM, the TGI [7] was 22.1 µM and the GI50 [8] was 6.73 µM. The TGI [8] was 19.1 µM, the GI50 [9] was 2.64 µM and the TGI [9] was 6.28 µM. It also gave a GI50 [10] of 2.62 µM, a TGI [10] of 6.54 µM and a GI50 [11] of 3.61 µM. The TGI [11] was 13.9 µM, the GI50 [12] was 2.51 µM and the TGI [12] was 8.7 µM. It also gave a GI50 [13] of 3.48 µM, a TGI [13] of 12.7 µM and a GI50 [14] of 10.6 µM. The TGI [14] was 22.5 µM, the GI50 [15] was 1.38 µM and the TGI [15] was 2.69 µM. The GI50 [16] was 1.74 µM, the TGI [16] was 3.16 µM and the GI50 [17] was 2.02 µM. It also gave a TGI [17] of 3.98 µM, a GI50 [18] of 8.76 µM and a TGI [18] of 21.2 µM. The GI50 [19] was 8.83 µM, the TGI [19] was 21.2 µM and the GI50 [20] was 5.47 µM. It also gave a TGI [20] of 16.7 µM, a GI50 [21] of 5.04 µM and a TGI [21] of 16.7 µM. The GI50 [22] was 3.66 µM, the TGI [22] was 13.2 µM and the GI50 [23] was 3.36 µM. For the same molecule, the TGI [23] was 11.9 µM, the GI50 [24] was 1.69 µM and the TGI [24] was 5.72 µM. The GI50 [25] was 10.7 µM, the TGI [25] was 23.2 µM and the GI50 [26] was 3.05 µM. It also gave a TGI [26] of 9.84 µM, a GI50 [27] of 1.55 µM and a TGI [27] of 3.81 µM. For the same molecule, the GI50 [28] was 4.4 µM, the TGI [28] was 10.2 µM and the GI50 [29] was 1.95 µM. It also gave a TGI [29] of 12.5 µM, a GI50 [30] of 2.4 µM and a TGI [30] of 6.03 µM. It also gave a GI50 [31] of 1.96 µM, a TGI [31] of 3.65 µM and a GI50 [32] of 1.84 µM. For the same molecule, the TGI [32] was 3.34 µM, the GI50 [33] was 1.83 µM and the TGI [33] was 4.32 µM. For the same molecule, the GI50 [34] was 4.58 µM, the TGI [34] was 12.4 µM and the GI50 [35] was 3.29 µM. The TGI [35] was 11.4 µM, the GI50 [36] was 2.78 µM and the TGI [36] was 7.45 µM. It also gave a GI50 [37] of 6.2 µM, a TGI [37] of 18 µM and a GI50 [38] of 11.1 µM. For the same molecule, the TGI [38] was 23.3 µM, the GI50 [39] was 3.08 µM and the TGI [39] was 11.1 µM. It also gave a GI50 [40] of 2.51 µM, a TGI [40] of 7.51 µM and a GI50 [41] of 12 µM. The TGI [41] was 24.4 µM, the GI50 [42] was 8.49 µM and the TGI [42] was 21.1 µM. The GI50 [43] was 1.93 µM, the TGI [43] was 4.2 µM and the GI50 [44] was 2.04 µM. For the same molecule, the TGI [44] was 6.29 µM, the GI50 [45] was 0.736 µM and the TGI [45] was 12.2 µM. The GI50 [46] was 1.27 µM, the TGI [46] was 2.59 µM and the GI50 [47] was 2.19 µM. The TGI [47] was 7.26 µM, the GI50 [48] was 3.29 µM and the TGI [48] was 11.8 µM. For the same molecule, the GI50 [49] was 1.8 µM, the TGI [49] was 3.24 µM and the GI50 [50] was 3.81 µM. For the same molecule, the TGI [50] was 13.1 µM, the GI50 [51] was 2.47 µM and the TGI [51] was 7.78 µM. The GI50 [52] was 7.08 µM, the TGI [52] was 19.2 µM and the GI50 [53] was 3.56 µM. It also gave a TGI [53] of 14.5 µM, a GI50 [54] of 3.19 µM and a TGI [54] of 7.85 µM. For the same molecule, the GI50 [55] was 3.93 µM, the TGI [55] was 14.1 µM and the GI50 [56] was 8.13 µM. The TGI [56] was 20.8 µM, the GI50 [57] was 3.38 µM and the TGI [57] was 7.81 µM. For the same molecule, the GI50 [58] was 7.13 µM, the TGI [58] was 19.4 µM and the GI50 [59] was 7.38 µM. It also gave a TGI [59] of 20.2 µM, a GI50 [60] of 7.5 µM and a TGI [60] of 19.6 µM.
